Experimental data: US20250302990A1, “ENHANCING NON-VIRAL DNA DELIVERY AND EXPRESSION” (Spark Therapeutics, Inc., priority 2022, published 2025)

How the values were obtained:
Wild type mice = assay: Survival after hFIX DNA-LNP dosing, with or without oral JAK inhibitors (Example 3); type: in vivo, mouse; conditions: 30 minutes prior to and days 1, 2, 3 post 2.5 mpk hFIX DNA-LNP (bCKK-E12 LNP), followed out to 30 days, vs untreated
Protocol: FIG. 6 illustrates survival of WT mice dosed systemically with 2.5 mpk (50 μg) of human factor IX (hFIX) transgene-encoding plasmid DNA encapsulated in lipid nanoparticles; and either untreated or treated with ruxolitinib or baricitinib orally 30 minutes prior to, and on days 1, 2, and 3 post systemic dosing with hFIX transgene encoding plasmid DNA encapsulated in lipid nanoparticles.
Wild type mice were untreated, or treated (n=5 per group) with JAK inhibitors ruxolitinib or baricitinib orally 30 minutes prior to, and days 1, 2, and 3 post systemic dosing with 2.5 mpk (50 μg) of human factor IX (hFIX) transgene-encoding plasmid DNA encapsulated in lipid nanoparticles (DNA-LNP). The LNP used in the study was formulated with bCKK-E12. Survival of mice in each group was followed out to 30 days (FIG. 6).

Wild type C57BL/6 mice = assay: Transgenic hFIX protein in blood plasma by ELISA one week post-DNA-LNP, anti-IFNAR and/or baricitinib (Example 4); type: in vivo, mouse; conditions: 2.5 mpk hFIX DNA-LNP (bCKK-E12) IV; anti-IFNAR 15 mpk IP 3 hours prior; baricitinib oral 90 minutes prior and daily days 1-6; one week post-dosing
Protocol: FIG. 7 illustrates FIX protein levels in blood plasma of mice not treated; or treated orally with baricitinib (“Bar”) 90 minutes prior to DNA-LNP dosing, and then daily on days 1-6 post-DNA-LNP dosing. Transgenic hFIX protein in blood plasma of surviving mice was measured by ELISA one-week post-DNA-LNP dosing.
Wild type C57BL/6 mice were untreated, or treated (n=5 per group) once IP with 15 mpk anti-mouse IFNAR blocking antibody (“anti-IFNAR”; clone MAR1-5A3, described in Dunn et al., Nat Immunol. 2005 July; 6(7):722-9) 3 hours prior to systemically (IV tail injections) dosing with 2.5 mpk (50 μg) of human factor IX (hFIX) transgene-encoding plasmid DNA encapsulated in lipid nanoparticles (DNA-LNP). The LNP used in the study was formulated with bCKK-E12. Mice were treated or not treated with the oral JAK inhibitor baricitinib (“Bar”) 90 minutes prior to DNA-LNP dosing, and then daily on days 1-6 post-DNA-LNP dosing. Transgenic hFIX protein in blood plasma of surviving mice was measured by ELISA one-week post-DNA-LNP dosing (FIG. 7).

Row | Compound | survival of mice dosed with DNA-LNP (Wild type mice) | DNA-LNP transgene efficacy (hFIX protein in blood plasma, ELISA) (Wild type C57BL/6 mice)
1 | N#CC[C@H](C1CCCC1)n1cc(-c2[nH]cnc3nccc2-3)cn1 [Ruxolitinib] | dramatically improved survival | –
2 | Baricitinib | dramatically improved survival | did not boost transgene efficacy
